# Measured values as given in patent US9809573B2, “Substituted pyridine derivatives useful as GSK-3 inhibitors” (priority 2013, dated 2017).
# Where two headings read alike, the source gives them in different places.
# Experiments:
# [1] = molecular target: GSK3α (Homo sapiens, UniProt P49840); experiment: biochemical
# Protocol: (§1) The kinase assay was performed in V-bottom 384-well plates. […] The reaction was incubated at room temperature for 20 hours and terminated by adding 45 μl of 35 mM EDTA to each sample. The reaction mixture was analyzed on the Caliper LabChip3000 (Caliper, Hopkinton, Mass.) by electrophoretic separation of the unphosphorylated substrate and phosphorylated product. […] Compounds were dissolved at 10 mM in dimethylsulfoxide (DMSO) and evaluated at eleven concentrations. IC50 values were derived by non-linear regression analysis.
# [2] = test system: pTau; experiment: pTau assay (method not described); type: cell-based
# [3] = molecular target: GSK3β (Homo sapiens, UniProt P49841); experiment: GSK3β kinase assay (Caliper LabChip3000, fluoresceinated peptide substrate); type: biochemical
# Chain of GSK3β (P49841 whole entry, species assumed): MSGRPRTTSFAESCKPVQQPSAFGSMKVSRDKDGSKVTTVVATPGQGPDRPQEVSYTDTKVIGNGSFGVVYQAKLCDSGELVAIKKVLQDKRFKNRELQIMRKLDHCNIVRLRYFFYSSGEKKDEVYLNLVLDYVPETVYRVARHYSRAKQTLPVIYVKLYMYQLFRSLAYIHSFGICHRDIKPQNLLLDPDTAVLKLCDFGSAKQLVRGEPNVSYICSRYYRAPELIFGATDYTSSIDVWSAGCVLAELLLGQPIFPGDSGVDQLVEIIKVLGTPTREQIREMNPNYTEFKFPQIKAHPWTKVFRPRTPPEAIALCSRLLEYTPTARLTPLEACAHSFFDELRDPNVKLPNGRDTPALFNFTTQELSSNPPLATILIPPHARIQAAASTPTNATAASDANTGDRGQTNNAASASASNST
# Protocol: as §1
# [4] = second value of the cell, 250 pM enzyme, 20 uM ATP, 20 hours at room temperature, read-out: GSK3β/α (nM): GSK3α IC50
# [5] = first value of the cell, 250 pM enzyme, 20 uM ATP, 20 hours at room temperature, read-out: GSK3β/α (nM): GSK3β IC50
# Chain of GSK3α (P49840 whole entry, species assumed): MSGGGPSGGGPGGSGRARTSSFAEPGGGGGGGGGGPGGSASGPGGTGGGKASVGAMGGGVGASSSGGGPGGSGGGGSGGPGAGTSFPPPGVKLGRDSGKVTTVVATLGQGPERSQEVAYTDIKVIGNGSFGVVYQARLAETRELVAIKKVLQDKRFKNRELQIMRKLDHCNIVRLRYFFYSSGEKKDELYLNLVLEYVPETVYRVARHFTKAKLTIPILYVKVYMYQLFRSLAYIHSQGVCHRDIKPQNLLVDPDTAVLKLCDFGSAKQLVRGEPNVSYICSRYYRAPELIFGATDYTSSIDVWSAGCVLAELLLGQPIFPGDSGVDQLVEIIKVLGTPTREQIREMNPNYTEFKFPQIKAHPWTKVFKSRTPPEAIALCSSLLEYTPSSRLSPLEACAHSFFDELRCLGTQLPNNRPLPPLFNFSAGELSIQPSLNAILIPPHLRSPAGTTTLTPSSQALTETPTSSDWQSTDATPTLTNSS
Structure (SMILES),"IC50 [1, 4]",IC50 ([2]; read-out: pTau),"IC50 [3, 5]",IC50 [1],IC50 ([2]; read-out: pTau (nM)),IC50 [3]
"Cc1ccc(NC(=O)c2ccnc(NC(=O)C3CC3)c2)cn1 [Example 11, 2-(Cyclopropanecarboxamido)-N-(6-methylpyridin-3-yl)isonicotinamide]",15 nM,2200 nM,30 nM,,,
"O=C(Nc1cncc(F)c1)c1ccnc(NC(=O)C2CC2)c1 [Example 12, 2-(Cyclopropanecarboxamido)-N-(5-fluoropyridin-3-yl)isonicotinamide]",16 nM,1400 nM,33 nM,,,
"COc1cncc(NC(=O)c2ccnc(NC(=O)C3CC3)c2)c1 [Example 13, 2-(Cyclopropanecarboxamido)-N-(5-methoxypyridin-3-yl)isonicotinamide]",7.3 nM,550 nM,13 nM,,,
"CC(=O)c1ccncc1NC(=O)c1ccnc(NC(=O)C2CC2)c1 [Example 14, N-(4-acetylpyridin-3-yl)-2-(cyclopropanecarboxamido)isonicotinamide]",0.54 nM,76 nM,,,,0.85 nM
"O=C(Nc1cncc(Br)c1)c1ccnc(NC(=O)C2CC2)c1 [Example 15, 2-(Cyclopropanecarboxamido)-N-(5-bromopyridin-3-yl)isonicotinamide]",11 nM,610 nM,16 nM,,,
"CC(O)c1ccncc1NC(=O)c1ccnc(NC(=O)C2CC2)c1 (stereo not drawn) [Example 17, 2-(Cyclopropanecarboxamido)-N-(4-(1-hydroxyethyl)pyridin-3-yl)isonicotinamide]",1.4 nM,35 nM,,,,0.25 nM
"O=C(Nc1cncc(C2CC2)c1)c1ccnc(NC(=O)C2CC2)c1 [Example 22, 2-(Cyclopropanecarboxamido)-N-(5-cyclopropylpyridin-3-yl)isonicotinamide]",2.4 nM,250 nM,7.1 nM,,,
"O=C(Nc1cnccc1N1CCOCC1)c1ccnc(NC(=O)C2CC2)c1 [Example 30, 2-(Cyclopropanecarboxamido)-N-(4-morpholinopyridin-3-yl)isonicotinamide]",0.54 nM,23 nM,,,,1 nM
"O=C(Nc1cnccc1C1CCC1)c1ccnc(NC(=O)C2CC2)c1 [Example 41, N-(4-cyclobutylpyridin-3-yl)-2-(cyclopropanecarboxamido)isonicotinamide]",3 nM,380 nM,,,,7.5 nM
"O=C(Nc1cnccc1N1CCC(F)(F)CC1)c1ccnc(NC(=O)C2CC2)c1 [Example 45, 2-(Cyclopropanecarboxamido)-N-(4-(4,4-difluoropiperidin-1-yl)pyridin-3-yl)isonicotinamide]",,,,0.19 nM,5.1 nM,0.22 nM
"O=C(Nc1cnccc1N1CCCCC1)c1ccnc(NC(=O)C2CC2)c1 [Example 50, 2-(Cyclopropanecarboxamido)-N-(4-(piperidin-1-yl)pyridin-3-yl)isonicotinamide]",0.35 nM,23 nM,,,,0.99 nM
"C[C@@H]1COCCN1c1ccncc1NC(=O)c1ccnc(NC(=O)C2CC2)c1 [Example 52, (R)-2-(cyclopropanecarboxamido)-N-(4-(3-methylmorpholino)pyridin-3-yl)isonicotinamide]",0.21 nM,12 nM,,,,0.49 nM
"O=C(Nc1cnccc1N1CCCCCC1)c1ccnc(NC(=O)C2CC2)c1 [Example 53, N-(4-(azepan-1-yl)pyridin-3-yl)-2-(cyclopropanecarboxamido)isonicotinamide]",14 nM,1200 nM,37 nM,,,
"C[C@H]1COCCN1c1ccncc1NC(=O)c1ccnc(NC(=O)C2CC2)c1 [Example 54, (S)-2-(cyclopropanecarboxamido)-N-(4-(3-methylmorpholino)pyridin-3-yl)isonicotinamide]",0.07 nM,2 nM,,,,0.06 nM
"O=C(Nc1cnccc1N1C2CCC1CC2)c1ccnc(NC(=O)C2CC2)c1 [Example 60, N-(4-(1s,4s)-7-azabicyclo[2.2.1]heptan-7-yl)pyridin-3-yl)-2-(cyclopropanecarboxamido)isonicotinamide]",5.7 nM,620 nM,16 nM,,,
"O=C(Nc1c(-c2ccccc2)ncc2ccccc12)c1ccnc(NC(=O)C2CC2)c1 [Example 63, 2-(Cyclopropanecarboxamido)-N-(3-phenylisoquinolin-4-yl)isonicotinamide]",56 nM,4100 nM,12 nM,,,
"C[C@@H]1CN(c2ccncc2NC(=O)c2ccnc(NC(=O)C3CC3)c2)C[C@H](C)O1 [Example 79, 2-(Cyclopropanecarboxamido)-N-(4-((2S,6R)-2,6-dimethylmorpholino)pyridin-3-yl)isonicotinamide]",5.5 nM,190 nM,,,,14 nM
"O=C(Nc1cnccc1N1CCCC(F)(F)C1)c1ccnc(NC(=O)C2CC2)c1 [Example 80, 2-(Cyclopropanecarboxamido)-N-(4-(3,3-difluoropiperidin-1-yl)pyridin-3-yl)isonicotinamide]",0.46 nM,34 nM,1.5 nM,,,

# Now from value to compound, other results behind:
"IC50 [1, 4]",IC50 ([2]; read-out: pTau),"IC50 [3, 5]",IC50 [1],IC50 ([2]; read-out: pTau (nM)),Structure (SMILES),IC50 [3]
64 nM,1800 nM,16 nM,,,"O=C(Nc1ccc(-c2ccccc2)nc1)c1ccnc(NC(=O)C2CC2)c1 [Example 10, 2-(Cyclopropanecarboxamido)-N-(6-phenylpyridin-3-yl)isonicotinamide]",
,,,0.2 nM,2.8 nM,"CC(C)(O)c1ccncc1NC(=O)c1ccnc(NC(=O)C2CC2)c1 [Example 16, 2-(Cyclopropanecarboxamido)-N-(4-(2-hydroxypropan-2-yl)pyridin-3-yl)isonicotinamide]",0.11 nM
0.96 nM,35 nM,1.4 nM,,,"O=C(Nc1cnccc1I)c1ccnc(NC(=O)C2CC2)c1 [Example 19, 2-(Cyclopropanecarboxamido)-N-(4-iodopyridin-3-yl)isonicotinamide]",
,,,2.4 nM,48 nM,"O=C(Nc1cnccc1C(O)C(F)(F)F)c1ccnc(NC(=O)C2CC2)c1 (stereo not drawn) [Example 23, 2-(Cyclopropanecarboxamido)-N-(4-(2,2,2-trifluoro-1-hydroxyethyl)pyridin-3-yl)isonicotinamide]",5.8 nM
,,,1.2 nM,110 nM,"O=C(Nc1cnccc1C(=O)C(F)(F)F)c1ccnc(NC(=O)C2CC2)c1 [Example 24, 2-(Cyclopropanecarboxamido)-N-(4-(2,2,2-trifluoroacetyl)pyridin-3-yl)isonicotinamide]",0.95 nM
0.85 nM,49 nM,2.8 nM,,,"Cc1cc(-c2ccncc2NC(=O)c2ccnc(NC(=O)C3CC3)c2)cs1 [Example 43, 2-(Cyclopropanecarboxamido)-N-(4-(5-methylthiophen-3-yl)pyridin-3-yl)isonicotinamide]",
8.4 nM,230 nM,13 nM,,,"O=C(Nc1cnccc1-c1ccc(C(F)(F)F)cc1)c1ccnc(NC(=O)C2CC2)c1 [Example 56, 2-(Cyclopropanecarboxamido)-N-(4-(4-(trifluoromethyl)phenyl)pyridin-3-yl)isonicotinamide]",
70 nM,8200 nM,78 nM,,,"O=C(Nc1c(-c2ccccc2)ccnc1Cl)c1ccnc(NC(=O)C2CC2)c1 [Example 59, N-(2-chloro-4-phenylpyridin-3-yl)-2-(cyclopropanecarboxamido)isonicotinamide]",
4.8 nM,310 nM,2.6 nM,,,"COc1ccnc(-c2ccccc2)c1NC(=O)c1ccnc(NC(=O)C2CC2)c1 [Example 62, 2-(Cyclopropanecarboxamido)-N-(4-methoxy-2-phenylpyridin-3-yl)isonicotinamide]",
76 nM,≥ 10000 nM,97 nM,,,"O=C(Nc1cnccc1-c1cncnc1)c1ccnc(NC(=O)C2CC2)c1 [Example 64, 2-(Cyclopropanecarboxamido)-N-(4-(pyrimidin-5-yl)pyridin-3-yl)isonicotinamide]",
4.5 nM,280 nM,7 nM,,,"O=C(Nc1cnccc1-c1ccc(C(F)(F)F)cc1Cl)c1ccnc(NC(=O)C2CC2)c1 [Example 70, N-(4-(2-chloro-4-(trifluoromethyl)phenyl)pyridin-3-yl)-2-(cyclopropanecarboxamido)isonicotinamide]",
6.4 nM,250 nM,3.1 nM,,,"CCCc1ccc(-c2ccncc2NC(=O)c2ccnc(NC(=O)C3CC3)c2)cc1 [Example 72, 2-(Cyclopropanecarboxamido)-N-(4-(4-propylphenyl)pyridin-3-yl)isonicotinamide]",
7.4 nM,460 nM,30 nM,,,"CC(C)c1ccc(-c2ccncc2NC(=O)c2ccnc(NC(=O)C3CC3)c2)cc1 [Example 75, 2-(Cyclopropanecarboxamido)-N-(4-(4-isopropylphenyl)pyridine-3-yl)isonicotinamide]",
0.58 nM,31 nM,1.3 nM,,,"COc1ccc(-c2ccncc2NC(=O)c2ccnc(NC(=O)C3CC3)c2)c(F)c1 [Example 81, 2-(Cyclopropanecarboxamido)-N-(4-(2-fluoro-4-methoxyphenyl)pyridin-3-yl)isonicotinamide]",
4 nM,200 nM,9.6 nM,,,"O=C(Nc1cnccc1-c1ccc(C(F)(F)F)cc1F)c1ccnc(NC(=O)C2CC2)c1 [Example 82, 2-(Cyclopropanecarboxamido)-N-(4-(2-fluoro-4-(trifluoromethyl)phenyl)pyridine-3-yl)isonicotinamide]",
